In patent US5266566A, “Method of treating fungal infections using sterodial ester compounds” (British Technology Group Limited, priority 1989, dated 1993):
In brackets after ≈: the same amount, converted by molar mass. Entries after “also recorded” stand apart in the source; their conditions may differ. Like-named read-outs stand apart in the source and are kept apart here.

Tests used:
Assay in all cases: Disc diffusion antifungal test (zones of inhibition, approximate MIC)
Type in all cases: cell-based
[1] = system: Candida albicans NCYC 597; conditions: for MIC: Candida albicans; for Activity against Candida albicans (in words): result in words
Protocol: (§1) Candida albicans NCYC 597; Trichophyton mentagrophytes NCPF 224 and Microsporum audonii NCPF 638 were used throughout as test organisms. These are open deposits at the National Collection of Yeast Cultures, Norwich UK and the National Collection of Pathogenic Fungi of the Commonwealth Mycological Institute, Kew UK.
(§2) All organisms were maintained in a nutrient broth containing (gl^-1): Lab Lemco (Oxoid), 5; Peptone (Oxoid), 5; NaCl, 10. Cultures for testing antimicrobial activity were grown in this medium for 18 h prior to use. Solidified media were prepared by the addition of Agar (Oxoid No. 3) 1.5% w/v.
(§3) Antifungal activity was estimated using solutions of the compound (as the free acid) in dimethyl sulphoxide. A range of concentrations was used for each compound to permit calculation of an approximate MIC. 13 mm discs (Whatman) were soaked in a solution of the appropriate dilution, either allowed to dry, or placed directly onto the surface of nutrient agar plates seeded with the required test organism.
(§4) After 24 h incubation the diameters of zones of inhibition were measured. After a further 24 h incubation, the plates were re-examined and zones re-measured. The compounds were tested in three groups.

[2] = system: Microsporum audonii NCPF 638; conditions: for MIC: Microsporum
Protocol: as §1, §2, §3, §4

[3] = system: Trichophyton mentagrophytes NCPF 224
Protocol: as §1, §2, §3, §4

[4] = NCPF638, Table 3, Group 3 tests, read-out: MIC M. aud.
[5] = NCPF224, Table 3, Group 3 tests, read-out: MIC T. ment.
[6] = NCPF638, Table 2, Group 2 tests, read-out: MIC Microsporum audonii
[7] = NCPF224, Table 2, Group 2 tests, read-out: MIC Trichophyton mentagrophytes
[8] = NCYC597, read-out: MIC C. albicans, Table 1, Group 1 tests
[9] = NCPF638, Table 1, Group 1 tests, read-out: MIC M. aud.
[10] = NCPF224, Table 1, Group 1 tests, read-out: MIC T. ment.
[11] = NCYC597, read-out: MIC Candida albicans, Table 2, Group 2 tests
[12] = NCPF638, read-out: MIC M. aud., Table 1, Group 1 tests
[13] = NCPF638, read-out: MIC Microsporum audonii, Table 2, Group 2 tests
[14] = NCPF224, read-out: MIC T. ment., Table 1, Group 1 tests
[15] = NCPF224, read-out: MIC Trichophyton mentagrophytes, Table 2, Group 2 tests
[16] = NCYC597, read-out: MIC C. albicans, Table 3, Group 3 tests
[17] = NCYC597, Table 1, Group 1 tests, read-out: MIC C. albicans

CCCCOC(=O)CC[C@@H](C)[C@H]1CC[C@H]2[C@@H]3[C@H](O)C[C@@H]4C[C@H](O)CC[C@]4(C)[C@H]3CC[C@]12C [Butyl chenodeoxycholate, n-butyl chenodeoxycholate]
MIC C. albicans ([1]; Table 3, Group 3 tests): no effect | MIC [2, 4]: 1000 µg/mL (≈ 2230 µM) | MIC [3, 5]: 1500 µg/mL (≈ 3340 µM)

CCCCOC(=O)CC[C@@H](C)[C@H]1CC[C@H]2[C@@H]3CC[C@@H]4C[C@H](O)CC[C@]4(C)[C@H]3C[C@H](O)[C@]12C [Butyl deoxycholate, n-butyl deoxycholate]
MIC [2, 6]: 875 µg/mL (≈ 1950 µM) | MIC [3, 7]: 850 µg/mL (≈ 1890 µM)

CCCCOC(=O)CC[C@@H](C)[C@H]1CC[C@H]2[C@@H]3CC[C@@H]4C[C@H](O)CC[C@]4(C)[C@H]3CC[C@]12C [Butyl lithocholate, n-butyl lithocholate]
MIC [2, 6]: 900 µg/mL (≈ 2080 µM) | MIC [3, 7]: 1100 µg/mL (≈ 2540 µM)

C[C@H](CCC(=O)O)[C@H]1CC[C@H]2[C@@H]3[C@H](O)C[C@@H]4C[C@H](O)CC[C@]4(C)[C@H]3CC[C@]12C [Chenodeoxycholic acid, reference compound]
MIC [1, 8]: 140 µg/mL (≈ 357 µM) | MIC [2, 9]: 1000 µg/mL (≈ 2550 µM) | MIC [3, 10]: 1300 µg/mL (≈ 3310 µM)

C[C@H](CCC(=O)O)[C@H]1CC[C@H]2[C@@H]3[C@H](O)C[C@@H]4C[C@H](O)CC[C@]4(C)[C@H]3C[C@H](O)[C@]12C [Cholic acid, reference compound]
MIC [1, 8]: 390 µg/mL (≈ 955 µM) | MIC [1, 11]: 405 µg/mL (≈ 991 µM) | MIC [2, 12]: 5500 µg/mL (≈ 13500 µM) | MIC [2, 13]: ~5000 µg/mL (≈ 12200 µM) | MIC [3, 14]: 10000 µg/mL (≈ 24500 µM) | MIC [3, 15]: ~10000 µg/mL (≈ 24500 µM)

C[C@H](CCC(=O)O)[C@H]1CC[C@H]2[C@@H]3CC[C@@H]4C[C@H](O)CC[C@]4(C)[C@H]3C[C@H](O)[C@]12C [Deoxycholic acid, reference compound]
MIC [1, 8]: 2100 µg/mL (≈ 5350 µM) | MIC [1, 16]: 1800 µg/mL (≈ 4590 µM) | MIC [1, 11]: 2000 µg/mL (≈ 5090 µM) | Activity against Candida albicans (in words) [1]: poorer action against Candida | MIC [2, 9]: 30 µg/mL (≈ 76.4 µM) | MIC [2, 6]: 35 µg/mL (≈ 89.2 µM) | MIC [2, 4]: 40 µg/mL (≈ 102 µM) | Activity against Microsporum audonii (in words) ([2]; result in words): very highly effective; also recorded: effective | MIC [3, 10]: 300 µg/mL (≈ 764 µM) | MIC [3, 7]: 310 µg/mL (≈ 790 µM) | MIC [3, 5]: 250 µg/mL (≈ 637 µM)

C[C@H](CCC(=O)O)[C@H]1CC[C@H]2[C@@H]3CC[C@@H]4C[C@H](O)CC[C@]4(C)[C@H]3CC[C@]12C [Lithocholic acid, reference compound]
MIC [1, 17]: 410 µg/mL (≈ 1090 µM) | MIC [2, 9]: 100 µg/mL (≈ 266 µM)

COC(=O)CC[C@@H](C)[C@H]1CC[C@H]2[C@@H]3[C@H](O)C[C@@H]4C[C@H](O)CC[C@]4(C)[C@H]3CC[C@]12C [Methyl chenodeoxycholate, methyl chenodeoxycholate]
MIC [1, 8]: 20 µg/mL (≈ 49.2 µM) | MIC [1, 16]: 1000 µg/mL (≈ 2460 µM) | MIC [2, 12]: 30 µg/mL (≈ 73.8 µM) | MIC ([2]; NCPF638, read-out: MIC M. aud., Table 3, Group 3 tests): 800 µg/mL (≈ 1970 µM) | MIC [3, 14]: 460 µg/mL (≈ 1130 µM) | MIC ([3]; NCPF224, read-out: MIC T. ment., Table 3, Group 3 tests): 1000 µg/mL (≈ 2460 µM)

COC(=O)CC[C@@H](C)[C@H]1CC[C@H]2[C@@H]3[C@H](O)C[C@@H]4C[C@H](O)CC[C@]4(C)[C@H]3C[C@H](O)[C@]12C [Methyl cholate, methyl cholate]
MIC [1, 17]: 3500 µg/mL (≈ 8280 µM) | MIC [2, 9]: 50 µg/mL (≈ 118 µM) | MIC [3, 10]: 80 µg/mL (≈ 189 µM)

COC(=O)CC[C@@H](C)[C@H]1CC[C@H]2[C@@H]3CC[C@@H]4C[C@H](O)CC[C@]4(C)[C@H]3C[C@H](O)[C@]12C [Methyl deoxycholate, methyl deoxycholate]
MIC [1, 17]: 20 µg/mL (≈ 49.2 µM) | MIC ([1]; NCYC597, Table 2, Group 2 tests, read-out: MIC Candida albicans): 31 µg/mL (≈ 76.2 µM) | MIC ([1]; NCYC597, Table 3, Group 3 tests, read-out: MIC C. albicans): 28 µg/mL (≈ 68.9 µM) | Homogeneity of effect in the zone of inhibition ([1]; Group 2 tests, many resistant colonies in the zone): not homogeneous | Activity against Candida albicans (in words) [1]: highly effective; also recorded: outstanding | MIC [2, 9]: 520 µg/mL (≈ 1280 µM) | MIC [2, 6]: 200 µg/mL (≈ 492 µM) | MIC [2, 4]: 450 µg/mL (≈ 1110 µM) | MIC [3, 10]: 900 µg/mL (≈ 2210 µM) | MIC [3, 7]: 250 µg/mL (≈ 615 µM) | MIC [3, 5]: 500 µg/mL (≈ 1230 µM)

COC(=O)CC[C@@H](C)[C@H]1CC[C@H]2[C@@H]3CC[C@@H]4C[C@H](O)CC[C@]4(C)[C@H]3CC[C@]12C [Methyl lithocholate, methyl lithocholate]
MIC [2, 13]: 950 µg/mL (≈ 2430 µM) | MIC [3, 15]: 1000 µg/mL (≈ 2560 µM)
